Assay results as given in the NIST ThermoML archive (doi:10.1021/je900550v).

Conditions: 101.33 kPa, Liquid; for speed of sound: Pulse-echo method; for mass density: Vibrating tube method

CCC(=O)[O-].C[NH2+]CCO [2-hydroxy-N-methylethanaminium propionate]
Conditions	mass density [kg/m3]	speed of sound [m/s]	viscosity [mPa·s]
278.15 K	1084.28	1752.4	–
278.4 K	1084.12	1751.6	–
278.65 K	1083.96	1750.7	–
278.9 K	1083.8	1749.8	–
279.15 K	1083.63	1749	–
279.4 K	1083.47	1748.1	–
279.65 K	1083.31	1747.3	–
279.9 K	1083.15	1746.5	–
280.15 K	1082.98	1745.6	–
280.4 K	1082.82	1744.8	–
280.65 K	1082.66	1744	–
280.9 K	1082.5	1743.1	–
281.15 K	1082.34	1742.3	–
281.4 K	1082.18	1741.5	–
281.65 K	1082.02	1740.7	–
281.9 K	1081.86	1739.8	–
282.15 K	1081.69	1739	–
282.4 K	1081.53	1738.2	–
282.65 K	1081.37	1737.4	–
282.9 K	1081.21	1736.6	–
283.15 K	1081.05	1735.8	–
283.4 K	1080.88	1735	–
283.65 K	1080.72	1734.2	–
283.9 K	1080.56	1733.4	–
284.15 K	1080.39	1732.6	–
284.4 K	1080.23	1731.8	–
284.65 K	1080.07	1731	–
284.9 K	1079.91	1730.2	–
285.15 K	1079.75	1729.4	–
285.4 K	1079.59	1728.5	–
285.65 K	1079.42	1727.8	–
285.9 K	1079.25	1727	–
286.15 K	1079.09	1726.2	–
286.4 K	1078.93	1725.5	–
286.65 K	1078.76	1724.7	–
286.9 K	1078.6	1723.9	–
287.15 K	1078.44	1723.1	–
287.4 K	1078.28	1722.4	–
287.65 K	1078.11	1721.6	–
287.9 K	1077.95	1720.8	–
288.15 K	1077.79	1720	432.13
288.4 K	1077.62	1719.3	–
288.65 K	1077.46	1718.5	–
288.9 K	1077.3	1717.7	–
289.15 K	1077.13	1717	–
289.4 K	1076.97	1716.2	–
289.65 K	1076.81	1715.4	–
289.9 K	1076.64	1714.7	–
290.15 K	1076.48	1713.9	–
290.4 K	1076.31	1713.2	–
290.65 K	1076.15	1712.4	359.06
290.9 K	1075.98	1711.6	–
291.15 K	1075.82	1710.9	–
291.4 K	1075.65	1710.1	–
291.65 K	1075.49	1709.3	–
291.9 K	1075.33	1708.6	–
292.15 K	1075.16	1707.8	–
292.4 K	1075	1707.1	–
292.65 K	1074.83	1706.4	–
292.9 K	1074.67	1705.6	–
293.15 K	1074.5	1704.9	301.63
293.4 K	1074.34	1704.1	–
293.65 K	1074.17	1703.4	–
293.9 K	1074.01	1702.6	–
294.15 K	1073.84	1701.9	–
294.4 K	1073.68	1701.1	–
294.65 K	1073.51	1700.4	–
294.9 K	1073.35	1699.7	–
295.15 K	1073.18	1698.9	–
295.4 K	1073.02	1698.2	–
295.65 K	1072.86	1697.4	256.14
295.9 K	1072.7	1696.7	–
296.15 K	1072.54	1695.9	–
296.4 K	1072.38	1695.2	–
296.65 K	1072.22	1694.5	–
296.9 K	1072.07	1693.7	–
297.15 K	1071.9	1693	–
297.4 K	1071.74	1692.2	–
297.65 K	1071.59	1691.5	–
297.9 K	1071.43	1690.7	–
298.15 K	1071.27	1690	215.06
298.4 K	1071.11	1689.3	–
298.65 K	1070.95	1688.5	–
298.9 K	1070.79	1687.8	–
299.15 K	1070.63	1687	–
299.4 K	1070.47	1686.3	–
299.65 K	1070.31	1685.5	–
299.9 K	1070.15	1684.8	–
300.15 K	1069.99	1684.1	–
300.4 K	1069.83	1683.3	–
300.65 K	1069.67	1682.6	182.88
300.9 K	1069.51	1681.8	–
301.15 K	1069.35	1681.1	–
301.4 K	1069.18	1680.3	–
301.65 K	1069.02	1679.6	–
301.9 K	1068.86	1678.9	–
302.15 K	1068.69	1678.1	–
302.4 K	1068.53	1677.4	–
302.65 K	1068.38	1676.7	–
302.9 K	1068.21	1675.9	–
303.15 K	1068.05	1675.2	158.24
303.4 K	1067.89	1674.5	–
303.65 K	1067.73	1673.7	–
303.9 K	1067.57	1673	–
304.15 K	1067.4	1672.3	–
304.4 K	1067.24	1671.5	–
304.65 K	1067.08	1670.8	–
304.91 K	1066.92	1670.1	–
305.15 K	1066.76	1669.3	140.88
305.4 K	1066.59	1668.6	–
305.65 K	1066.42	1667.9	–
305.9 K	1066.27	1667.1	–
306.15 K	1066.1	1666.4	–
306.4 K	1065.94	1665.7	–
306.65 K	1065.77	1664.9	–
306.9 K	1065.61	1664.2	–
307.15 K	1065.45	1663.5	–
307.4 K	1065.28	1662.7	–
307.65 K	1065.12	1662	–
307.9 K	1064.95	1661.2	–
308.15 K	1064.8	1660.5	118
308.4 K	1064.63	1659.8	–
308.65 K	1064.46	1659	–
308.9 K	1064.3	1658.3	–
309.15 K	1064.14	1657.6	–
309.4 K	1063.97	1656.8	–
309.65 K	1063.81	1656.1	–
309.9 K	1063.64	1655.4	–
310.15 K	1063.48	1654.6	105.84
310.4 K	1063.31	1653.9	–
310.65 K	1063.15	1653.1	–
310.91 K	1062.98	1652.4	–
311.16 K	1062.82	1651.7	–
311.4 K	1062.65	1650.9	–
311.65 K	1062.49	1650.2	–
311.91 K	1062.33	1649.4	–
312.16 K	1062.16	1648.7	–
312.41 K	1061.99	1648	–
312.66 K	1061.83	1647.2	–
312.91 K	1061.66	1646.5	–
313.15 K	–	–	93.38
313.16 K	1061.5	1645.7	–
313.4 K	1061.33	1645	–
313.66 K	1061.17	1644.2	–
313.9 K	1061	1643.5	–
314.15 K	1060.84	1642.8	–
314.4 K	1060.67	1642	–
314.65 K	1060.5	1641.3	–
314.9 K	1060.34	1640.5	–
315.15 K	1060.17	1639.8	–
315.41 K	1060.01	1639	–
315.65 K	1059.84	1638.3	81.2
315.91 K	1059.67	1637.6	–
316.16 K	1059.51	1636.8	–
316.41 K	1059.34	1636.1	–
316.66 K	1059.18	1635.4	–
316.91 K	1059.01	1634.6	–
317.16 K	1058.84	1633.9	–
317.4 K	1058.67	1633.2	–
317.66 K	1058.51	1632.4	–
317.91 K	1058.34	1631.7	–
318.15 K	–	–	70.3
318.16 K	1058.17	1630.9	–
318.41 K	1058.01	1630.2	–
318.65 K	1057.84	1629.4	–
318.9 K	1057.67	1628.7	–
319.16 K	1057.51	1628	–
319.41 K	1057.34	1627.2	–
319.65 K	1057.17	1626.5	64.18
319.91 K	1057	1625.7	–
320.16 K	1056.83	1624.9	–
320.41 K	1056.67	1624.2	–
320.65 K	1056.5	1623.4	–
320.91 K	1056.33	1622.7	–
321.15 K	1056.16	1622	–
321.41 K	1056	1621.2	–
321.66 K	1055.83	1620.4	–
321.9 K	1055.66	1619.7	–
322.15 K	1055.49	1618.9	–
322.41 K	1055.32	1618.2	–
322.65 K	1055.15	1617.5	–
322.91 K	1054.99	1616.7	–
323.15 K	–	–	55.1
323.16 K	1054.82	1616	–
323.41 K	1054.65	1615.2	–
323.65 K	1054.48	1614.5	–
323.91 K	1054.31	1613.7	–
324.16 K	1054.15	1613	–
324.41 K	1053.97	1612.2	–
324.65 K	1053.81	1611.4	–
324.9 K	1053.64	1610.7	–
325.16 K	1053.47	1609.9	–
325.4 K	1053.3	1609.2	–
325.66 K	1053.13	1608.4	–
325.9 K	1052.96	1607.7	–
326.16 K	1052.79	1606.9	–
326.41 K	1052.62	1606.2	–
326.66 K	1052.45	1605.4	–
326.9 K	1052.29	1604.7	–
327.16 K	1052.12	1603.9	–
327.4 K	1051.94	1603.2	–
327.66 K	1051.78	1602.4	–
327.9 K	1051.61	1601.7	–
328.15 K	1051.44	1600.9	–
328.41 K	1051.27	1600.2	–
328.66 K	1051.1	1599.4	–
328.9 K	1050.93	1598.6	–
329.16 K	1050.76	1597.9	–
329.4 K	1050.59	1597.1	–
329.65 K	1050.42	1596.4	–
329.9 K	1050.24	1595.6	–
330.16 K	1050.07	1594.9	–
330.41 K	1049.9	1594.1	–
330.66 K	1049.73	1593.3	–
330.91 K	1049.56	1592.6	–
331.16 K	1049.39	1591.8	–
331.41 K	1049.22	1591.1	–
331.66 K	1049.05	1590.3	–
331.91 K	1048.88	1589.5	–
332.16 K	1048.71	1588.8	–
332.41 K	1048.54	1588	–
332.66 K	1048.36	1587.3	–
332.91 K	1048.19	1586.5	–
333.16 K	1048.02	1585.7	–
333.41 K	1047.85	1585	–
333.66 K	1047.68	1584.2	–
333.91 K	1047.51	1583.5	–
334.16 K	1047.33	1582.7	–
334.41 K	1047.16	1582	–
334.66 K	1046.99	1581.2	–
334.91 K	1046.82	1580.5	–
335.16 K	1046.64	1579.7	–
335.41 K	1046.47	1579	–
335.66 K	1046.3	1578.2	–
335.91 K	1046.13	1577.5	–
336.16 K	1045.95	1576.7	–
336.41 K	1045.78	1576	–
336.66 K	1045.61	1575.2	–
336.9 K	1045.44	1574.4	–
337.16 K	1045.27	1573.7	–
337.4 K	1045.09	1572.9	–
337.66 K	1044.92	1572.1	–
337.9 K	1044.75	1571.3	–
338.15 K	1044.58	1570.6	–
